Data taken from patent publication US20230373952A1, “LACTAM COMPOUNDS AS Kv1.3 POTASSIUM SHAKER CHANNEL BLOCKERS” (D.E. Shaw Research, LLC, priority 2020, published 2023).

How the values were obtained:
[1] = target: T1, Kv1.3 potassium channel (Homo sapiens, UniProt P22001); assay: Kv1.3 potassium channel blocker activity, automated whole-cell patch clamp (Patchliner); assay type: cell-based; details: CHO-K1 cells stably expressing Kv1.3; whole-cell current inhibition, Hill fit; read-out: Kv1.3 IC50
T1 construct: expressed in transfected cells
Method: CHO-K1 cells stably expressing Kv1.3 were grown in DMEM containing 10% heat-inactivated FBS, 1 mM sodium pyruvate, 2 mM L-glutamine and G418 (500 μg/ml).
The currents were evoked by applying 100 ms depolarizing pulses from −90 mV (holding potential) to +40 mV were applied with 0.1 Hz frequency. […] 10-second breaks were used between pulse trains (see Table H below).
Passive leak currents were subtracted online using a P/4 procedure (HEKA Elektronik Dr. Schulze GmbH). […] Total compound incubation time before the next pulse train was not longer than 10 seconds. Peak current inhibition was observed during compound equilibration.

[2] = target: hERG channel (Homo sapiens, UniProt Q12809); assay: cell-based
Chain of hERG channel (Q12809 whole entry): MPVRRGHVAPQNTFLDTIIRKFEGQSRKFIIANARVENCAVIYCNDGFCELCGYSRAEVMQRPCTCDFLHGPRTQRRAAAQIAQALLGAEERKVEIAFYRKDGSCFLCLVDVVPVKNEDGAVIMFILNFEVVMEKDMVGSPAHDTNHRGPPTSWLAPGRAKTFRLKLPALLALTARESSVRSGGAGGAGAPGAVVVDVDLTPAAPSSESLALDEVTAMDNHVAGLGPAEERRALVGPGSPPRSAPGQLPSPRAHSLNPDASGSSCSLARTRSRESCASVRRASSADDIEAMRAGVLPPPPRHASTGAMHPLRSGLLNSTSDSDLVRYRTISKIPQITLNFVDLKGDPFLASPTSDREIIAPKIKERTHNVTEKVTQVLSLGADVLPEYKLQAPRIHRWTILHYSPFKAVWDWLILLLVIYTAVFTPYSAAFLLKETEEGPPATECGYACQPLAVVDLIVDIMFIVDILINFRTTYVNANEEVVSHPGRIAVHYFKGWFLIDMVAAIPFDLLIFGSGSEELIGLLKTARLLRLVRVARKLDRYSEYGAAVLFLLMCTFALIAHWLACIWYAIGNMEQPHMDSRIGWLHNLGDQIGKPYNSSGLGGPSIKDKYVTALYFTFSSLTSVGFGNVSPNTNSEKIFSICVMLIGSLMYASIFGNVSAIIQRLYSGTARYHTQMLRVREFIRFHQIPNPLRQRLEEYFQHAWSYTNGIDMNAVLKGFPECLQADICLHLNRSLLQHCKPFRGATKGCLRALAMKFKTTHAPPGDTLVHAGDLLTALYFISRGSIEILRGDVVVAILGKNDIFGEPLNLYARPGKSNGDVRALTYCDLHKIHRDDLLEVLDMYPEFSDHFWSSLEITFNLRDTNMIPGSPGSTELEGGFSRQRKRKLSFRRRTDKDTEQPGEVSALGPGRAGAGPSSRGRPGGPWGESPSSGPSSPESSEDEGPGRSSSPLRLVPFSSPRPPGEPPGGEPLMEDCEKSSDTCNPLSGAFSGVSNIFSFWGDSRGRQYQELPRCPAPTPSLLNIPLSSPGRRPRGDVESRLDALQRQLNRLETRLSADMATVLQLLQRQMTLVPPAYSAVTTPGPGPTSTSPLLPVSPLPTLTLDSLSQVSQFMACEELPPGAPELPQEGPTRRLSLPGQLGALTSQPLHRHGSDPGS
Method: This assay is used to evaluate the disclosed compounds' inhibition activities against the hERG channel.
CHO-K1 cells stably expressing hERG were grown in Ham's F-12 Medium with glutamine containing 10% heat-inactivated FBS, 1% penicillin/streptomycin, hygromycin (100 μg/ml) and G418 (100 μg/ml). Cells were grown in culture flasks at 37° C. in a 5% CO2-humidified incubator.
All compounds were dissolved in DMSO at 30 mM. Compound stock solutions were freshly diluted with external solution to concentrations of 30 nM, 100 nM, 300 nM, 1 μM, 3 μM, 10 μM, 30 μM and 100 μM. The highest content of DMSO (0.3%) was present in 100 μM.
The voltage protocol (see Table I) was designed to simulate voltage changes during a cardiac action potential with a 300 ms depolarization to +20 mV (analogous to the plateau phase of the cardiac action potential), a repolarization for 300 ms to −50 mV (inducing a tail current) and a final step to the holding potential of −80 mV. The pulse frequency was 0.3 Hz. Control (compound-free) and compound pulse trains for each compound concentration applied contained 70 pulses.
Whole-cell current recordings and compound application were enabled by means of an automated patch clamp platform Patchliner (Nanion). EPC 10 patch clamp amplifier (HEKA) along with Patchmaster software (HEKA Elektronik Dr. Schulze GmbH) was used for data acquisition. Data were sampled at 10 kHz without filtering. Increasing compound concentrations were applied consecutively to the same cell without washouts in between.
AUC and PEAK values were obtained with Patchmaster (HEKA Elektronik Dr. Schulze GmbH). To determine IC50 the last single pulse in the pulse train corresponding to a given compound concentration was used. Obtained AUC and PEAK values in the presence of compound were normalized to control values in the absence of compound.

T1 sequence (P22001 whole entry): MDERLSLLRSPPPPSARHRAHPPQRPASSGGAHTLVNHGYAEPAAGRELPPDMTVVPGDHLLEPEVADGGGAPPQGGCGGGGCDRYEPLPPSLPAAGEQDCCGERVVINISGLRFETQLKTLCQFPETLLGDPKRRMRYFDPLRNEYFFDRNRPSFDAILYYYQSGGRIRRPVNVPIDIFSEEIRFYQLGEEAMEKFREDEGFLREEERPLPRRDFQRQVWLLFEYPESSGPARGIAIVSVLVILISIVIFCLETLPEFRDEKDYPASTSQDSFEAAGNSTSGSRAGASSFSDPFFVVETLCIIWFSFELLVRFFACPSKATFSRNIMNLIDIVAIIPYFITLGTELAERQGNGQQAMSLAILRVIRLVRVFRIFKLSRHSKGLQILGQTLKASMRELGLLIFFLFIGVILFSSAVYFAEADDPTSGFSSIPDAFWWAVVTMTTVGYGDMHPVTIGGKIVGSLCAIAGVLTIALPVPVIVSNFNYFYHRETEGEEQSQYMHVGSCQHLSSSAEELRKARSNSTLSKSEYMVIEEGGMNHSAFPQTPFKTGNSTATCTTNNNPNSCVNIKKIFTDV

| Compound | IC50 [1] [nM] | IC50 [2] [nM] |
| --- | --- | --- |
| O=C1C[C@@H](c2c(O)ccc(Cl)c2Cl)CCN1[C@H]1CCNC1 (single isomer, unassigned) [Compound 2, 4-(2,3-dichloro-6-hydroxyphenyl)-1-[pyrrolidin-3-yl]piperidin-2-one] | < 100 | > 30000 |
| O=C1CC[C@@H](c2c(O)ccc(Cl)c2Cl)CN1[C@H]1CCNC1 (single isomer, unassigned) [Compound 6, 5-(2,3-dichloro-6-hydroxyphenyl)-1-[pyrrolidin-3-yl]piperidin-2-one] | < 1000 |  |
| O=C1CC[C@H](c2c(O)ccc(Cl)c2Cl)CN1[C@H]1CCNC1 (single isomer, unassigned) [Compound 7, 5-(2,3-dichloro-6-hydroxyphenyl)-1-[pyrrolidin-3-yl]piperidin-2-one] | < 100 | > 30000 |
| O=C1N[C@@H](c2c(O)ccc(Cl)c2Cl)CCN1[C@H]1CCNC1 (single isomer, unassigned) [Compound 8, 4-(2,3-dichloro-6-hydroxyphenyl)-1-[pyrrolidin-3-yl]-tetrahydropyrimidin-2(1H)-one] | < 1000 |  |
| O=C1N[C@@H](c2c(O)ccc(Cl)c2Cl)CCN1[C@@H]1CCNC1 (single isomer, unassigned) [Compound 9, 4-(2,3-dichloro-6-hydroxyphenyl)-1-[pyrrolidin-3-yl]-tetrahydropyrimidin-2(1H)-one] | < 1000 | > 10000 |
| O=C1N[C@H](c2c(O)ccc(Cl)c2Cl)CCN1[C@H]1CCNC1 (single isomer, unassigned) [Compound 10, 4-(2,3-dichloro-6-hydroxyphenyl)-1-[pyrrolidin-3-yl]-tetrahydropyrimidin-2(1H)-one] | < 1000 |  |
| O=C1N[C@H](c2c(O)ccc(Cl)c2Cl)CCN1[C@@H]1CCNC1 (single isomer, unassigned) [Compound 11, 4-(2,3-dichloro-6-hydroxyphenyl)-1-[pyrrolidin-3-yl]-tetrahydropyrimidin-2(1H)-one] | < 1000 | > 10000 |
| O=C1C[C@@H](c2c(O)ccc(Cl)c2Cl)CN1[C@H]1CCNC1 (single isomer, unassigned) [Compound 12, 4-(2,3-dichloro-6-hydroxyphenyl)-[1,3-bipyrrolidin]-2-one] | < 1000 | > 30000 |
| C[C@H]1C(=O)N(C2CNC2)C[C@H]1c1c(O)ccc(Cl)c1Cl (single isomer, unassigned; isomer 1) [Compound 87, 1-(azetidin-3-yl)-4-(2,3-dichloro-6-hydroxyphenyl)-3-methylpyrrolidin-2-one isomer 1] | < 1000 |  |
| O=C1C[C@@H](c2c(O)ccc(Cl)c2Cl)CN1C1CCOC1 (single isomer, unassigned; isomer 2) [Compound 28] | < 1000 |  |
| O=C1CO[C@@H](c2c(O)ccc(Cl)c2Cl)CN1CCO (single isomer, unassigned; isomer 2) [Compound 96, 6-(2,3-dichloro-6-hydroxyphenyl)-4-(2-hydroxyethyl)morpholin-3-one isomer 2] | < 30000 |  |
| O=C1CN[C@H](c2c(O)ccc(Cl)c2Cl)CN1C1CNC1 (single isomer, unassigned; isomer 2) [Compound 98, 1-(azetidin-3-yl)-5-(2,3-dichloro-6-hydroxyphenyl)piperazin-2-one isomer 2] | < 30000 |  |
| C[C@H]1C(=O)N(C2CNC2)C[C@@H]1c1c(O)ccc(Cl)c1Cl (single isomer, unassigned; isomer 3) [Compound 89, 1-(azetidin-3-yl)-4-(2,3-dichloro-6-hydroxyphenyl)-3-methylpyrrolidin-2-one isomer 3] | < 10000 |  |
| CC1[C@@H](c2c(O)ccc(Cl)c2Cl)CC(=O)N1C[C@H](O)CO (stereo in doubt) [Compound 78, (4R,5R)-4-(2,3-dichloro-6-hydroxyphenyl)-1-[(2S)-2,3-dihydroxypropyl]-5-methylpyrrolidin-2-one] | < 10000 |  |
| O=C1C[C@@H](c2c(O)ccc(Cl)c2Cl)CN1C(CO)CO [Compound 18, (4S)-4-(2,3-dichloro-6-hydroxyphenyl)-1-(1,3-dihydroxypropan-2-yl)pyrrolidin-2-one] | < 1000 |  |
| CC(C)(O)CCN1C[C@H](c2c(O)ccc(Cl)c2Cl)CC1=O [Compound 45, (S)-4-(2,3-dichloro-6-hydroxyphenyl)-1-(3-hydroxy-3-methylbutyl)pyrrolidin-2-one] | < 1000 |  |
| N[C@@H](CO)CN1C[C@H](c2c(O)ccc(Cl)c2Cl)CC1=O [Compound 49, (4S)-1-[(2R)-2-amino-3-hydroxypropyl]-4-(2,3-dichloro-6-hydroxyphenyl)pyrrolidin-2-one] | < 100 |  |
| Cn1cnc(N2C[C@H](c3c(O)ccc(Cl)c3Cl)CC2=O)c1 [Compound 59, (S)-4-(2,3-dichloro-6-hydroxyphenyl)-1-(1-methyl-1H-imidazol-4-yl)pyrrolidin-2-one] | < 1000 |  |
| Cc1cc(N2C[C@H](c3c(O)ccc(Cl)c3Cl)CC2=O)sn1 [Compound 60, (S)-4-(2,3-dichloro-6-hydroxyphenyl)-1-(3-methylisothiazol-5-yl)pyrrolidin-2-one] | < 1000 |  |
| O=C1C[C@@H](c2c(O)ccc(Cl)c2Cl)CN1c1cnn(CCO)c1 [Compound 69, (S)-4-(2,3-dichloro-6-hydroxyphenyl)-1-(1-(2-hydroxyethyl)-1H-pyrazol-4-yl)pyrrolidin-2-one] | < 100 |  |
| C[C@H]1[C@@H](c2c(O)ccc(Cl)c2Cl)CC(=O)N1C1CNC1 [Compound 83, (4R,5S)-1-(azetidin-3-yl)-4-(2,3-dichloro-6-hydroxyphenyl)-5-methylpyrrolidin-2-one] | < 10000 |  |
| N[C@@H]1C(=O)N(C2CNC2)C[C@H]1c1c(O)ccc(Cl)c1Cl [Compound 91, (3S,4R)-3-amino-1-(azetidin-3-yl)-4-(2,3-dichloro-6-hydroxyphenyl)pyrrolidin-2-one] | < 10000 |  |

Second part, led by results:

| IC50 [1] [nM] | Compound | IC50 [2] [nM] |
| --- | --- | --- |
| < 100 | C[C@H]1[C@H](c2c(O)ccc(Cl)c2Cl)NC(=O)N1CCCO (relative stereo) [Compound 101, (4S,5S)-rel-4-(2,3-dichloro-6-hydroxyphenyl)-1-(3-hydroxypropyl)-5-methylimidazolidin-2-one] | > 30000 |
| < 100 | O=C1CC(c2c(O)ccc(Cl)c2Cl)CCN1C1CCNC1 (single isomer, unassigned) [Compound 1, 4-(2,3-dichloro-6-hydroxyphenyl)-1-[pyrrolidin-3-yl]piperidin-2-one] | > 30000 |
| < 1000 | O=C1C[C@H](c2c(O)ccc(Cl)c2Cl)CCN1[C@@H]1CCNC1 (single isomer, unassigned) [Compound 3, 4-(2,3-dichloro-6-hydroxyphenyl)-1-[pyrrolidin-3-yl]piperidin-2-one] |  |
| < 1000 | O=C1C[C@@H](c2c(O)ccc(Cl)c2Cl)CCN1[C@@H]1CCNC1 (single isomer, unassigned) [Compound 4, 4-(2,3-dichloro-6-hydroxyphenyl)-1-[pyrrolidin-3-yl]piperidin-2-one] |  |
| < 100 | O=C1CC[C@@H](c2c(O)ccc(Cl)c2Cl)CN1[C@@H]1CCNC1 (single isomer, unassigned) [Compound 5, 5-(2,3-dichloro-6-hydroxyphenyl)-1-[pyrrolidin-3-yl]piperidin-2-one] | > 30000 |
| < 1000 | O=C1C[C@@H](c2c(O)ccc(Cl)c2Cl)CN1[C@H]1CCOC1 (single isomer, unassigned; isomer 1) [Compound 27] |  |
| < 100 | C[C@@H](O)CCN1C[C@H](c2c(O)ccc(Cl)c2Cl)CC1=O (single isomer, unassigned; isomer 1) [Compound 47] |  |
| < 1000 | O=C1CN[C@@H](c2c(O)ccc(Cl)c2Cl)CN1C1CNC1 (single isomer, unassigned; isomer 1) [Compound 97, 1-(azetidin-3-yl)-5-(2,3-dichloro-6-hydroxyphenyl)piperazin-2-one isomer 1] |  |
| < 100 | C[C@H](O)CCN1C[C@H](c2c(O)ccc(Cl)c2Cl)CC1=O (single isomer, unassigned; isomer 2) [Compound 48] |  |
| < 10000 | C[C@@H]1C(=O)N(C2CNC2)C[C@H]1c1c(O)ccc(Cl)c1Cl (single isomer, unassigned; isomer 2) [Compound 88, 1-(azetidin-3-yl)-4-(2,3-dichloro-6-hydroxyphenyl)-3-methylpyrrolidin-2-one isomer 2] |  |
| < 10000 | CC1[C@@H](c2c(O)ccc(Cl)c2Cl)CC(=O)N1CCO (stereo in doubt) [Compound 80, (4R,5R)-4-(2,3-dichloro-6-hydroxyphenyl)-1-(2-hydroxyethyl)-5-methylpyrrolidin-2-one] |  |
| < 100 | N[C@H](CO)CN1C[C@H](c2c(O)ccc(Cl)c2Cl)CC1=O [Compound 50, (4S)-1-[(2S)-2-amino-3-hydroxypropyl]-4-(2,3-dichloro-6-hydroxyphenyl)pyrrolidin-2-one] |  |
| < 1000 | O=C1C[C@@H](c2c(O)ccc(Cl)c2Cl)CN1c1cccnc1 [Compound 63, (S)-4-(2,3-dichloro-6-hydroxyphenyl)-1-(pyridin-3-yl)pyrrolidin-2-one] |  |
| < 10000 | Cc1cc(N2C[C@H](c3c(O)ccc(Cl)c3Cl)CC2=O)no1 [Compound 73, (S)-4-(2,3-dichloro-6-hydroxyphenyl)-1-(5-methylisoxazol-3-yl)pyrrolidin-2-one] |  |
| < 1000 | C[C@@H]1[C@H](c2c(O)ccc(Cl)c2Cl)CC(=O)N1CCO [Compound 84, (4S,5R)-4-(2,3-dichloro-6-hydroxyphenyl)-1-(2-hydroxyethyl)-5-methylpyrrolidin-2-one] |  |
| < 30000 | C[C@H]1[C@@H](c2c(O)ccc(Cl)c2Cl)CC(=O)N1CCO [Compound 85, (4R,5S)-4-(2,3-dichloro-6-hydroxyphenyl)-1-(2-hydroxyethyl)-5-methylpyrrolidin-2-one] |  |
